Assay [1] has as its target T1, CD73 (Homo sapiens (Human), UniProt P21589). Kind of assay: CD73 Biochemical IC50 Assay. The note with it: CD73 0.3 nM, AMP 15 uM, 25 mM Tris pH 7.4, 5 mM MgCl2. On the procedure:
CD73 Biochemical IC50 Assay
Compound serial dilutions were pre-spotted into Thermo Nunc assay plate. 50 μL CD73 enzyme buffer (CD73 purchased from R&D system=0.6 nM, 25 mM Tris, pH 7.4, 5 mM MgCl2) was added into the assay plate and incubated for 15 mins. […] The samples were run using Rapid fire.

Assay [2] deals with T1, CD73. The experiment in a line: MDA-MB-231 Cell Based CD73 Activity Assay. The note with it: MDA-MB-231-GFP cells, RPMI medium with 10% human plasma, 200 uM AMP. On the procedure:
MDA-MB-231 Cell Based CD73 Activity Assay
MDA-MB-231-GFP cells were seeded in 384-well plates (Greiner 781946) at a density of 10000 cells per well in 50 μL of RPMI medium with 10% HP (human plasma). Cells were plated into assay plate with compounds pre-spotted, for an overnight compound treatment. 50 μL of 400 μM AMP (final concentration 200 μM) using a Bio-tek dispenser. Plates were incubated for 100 mins. […] The samples were run using Rapid fire.

Assay [3] deals with T1, CD73. The experiment in a line: MDA-MB-231 Cell Based CD73 Activity Assay (DMEM). Conditions: MDA-MB-231-GFP cells, DMEM medium with 10% human plasma, 200 uM AMP.

The source of these data is patent publication US20240043427A1 (Gilead Sciences, Inc., priority 2020, published 2024).

What is called IC50 is the midpoint of a concentration-inhibition curve. A higher IC50 goes with weaker potency in that assay. By EC50 is commonly meant the midpoint of the concentration-response curve. Read a low EC50 as a more potent agent.

Several values for one entry are separate records, joined by “and”; a condition that tells them apart may be missing. Identical values can stand only once.

T1 sequence (P21589 27-574): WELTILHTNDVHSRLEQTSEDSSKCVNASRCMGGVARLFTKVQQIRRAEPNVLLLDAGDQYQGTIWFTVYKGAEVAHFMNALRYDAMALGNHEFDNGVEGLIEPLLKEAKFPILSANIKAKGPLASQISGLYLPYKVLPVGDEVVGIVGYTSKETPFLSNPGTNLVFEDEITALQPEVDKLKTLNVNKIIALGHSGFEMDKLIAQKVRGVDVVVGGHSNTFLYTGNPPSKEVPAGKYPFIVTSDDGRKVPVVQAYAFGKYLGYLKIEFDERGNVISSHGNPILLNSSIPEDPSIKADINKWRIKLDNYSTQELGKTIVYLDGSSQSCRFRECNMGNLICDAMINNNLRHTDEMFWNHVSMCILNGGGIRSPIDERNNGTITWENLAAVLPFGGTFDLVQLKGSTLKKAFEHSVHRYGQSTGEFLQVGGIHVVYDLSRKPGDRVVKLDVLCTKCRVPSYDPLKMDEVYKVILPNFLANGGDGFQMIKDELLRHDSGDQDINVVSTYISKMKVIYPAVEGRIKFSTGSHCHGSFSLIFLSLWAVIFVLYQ

Molecule “5-(8-((1S,2S)-2-(2,3,5-trifluorophenyl)cyclopropyl)imidazo[1,2-b]pyridazin-6-yl)pyrimidine-2,4(1H,3H)-dione and 5-(8-((1R,2R)-2-(2,3,5-trifluorophenyl)cyclopropyl)imidazo[1,2-b]pyridazin-6-yl)pyrimidine-2,4(1H,3H)-dione [Example 61]” had a concentration for half-maximal inhibition (IC50) against CD73 [1] of 0.0121 µM. On CD73 [2], this molecule showed an EC50 of 0.0166 µM.

With “5-(8-((1S,2S)-2-phenylcyclopropyl)imidazo[1,2-b]pyridazin-6-yl)pyrimidine-2,4-(1H,3H)-dione and 5-(8-((1R,2R)-2-phenylcyclopropyl)imidazo[1,2-b]pyridazin-6-yl)pyrimidine-2,4-(1H,3H)-dione [Example 104]”, the IC50 at CD73 [1] was 0.196 µM. The molecule also came in with an EC50 at CD73 [2] of 0.0232 µM.

Consider `N#Cc1cc([C@H]2C[C@@H]2c2cc(-c3c[nH]c(=O)[nH]c3=O)nn3ccnc23)ccc1F` (mixture of isomers) [Example 64, 5-((1S,2S)-2-(6-(2,4-dioxo-1,2,3,4-tetrahydropyrimidin-5-yl)imidazo[1,2-b]pyridazin-8-yl)cyclopropyl)-2-fluorobenzonitrile and 5-((1R,2R)-2-(6-(2,4-dioxo-1,2,3,4-tetrahydropyrimidin-5-yl)imidazo[1,2-b]pyridazin-8-yl)cyclopropyl)-2-fluorobenzonitrile], for which the values for the half-maximal effective concentration (EC50) at CD73 [3] and at CD73 [2] were 0.00767 µM and 0.00287 µM, respectively.

Molecule `O=c1[nH]cc(-c2cc([C@H]3C[C@]3(F)c3ccccc3)c3nccn3n2)c(=O)[nH]1` (mixture of isomers) [Example 108, 5-(8-((1R,2R)-2-fluoro-2-phenylcyclopropyl)imidazo[1,2-b]pyridazin-6-yl)pyrimidine-2,4(1H,3H)-dione and 5-(8-((1S,2S)-2-fluoro-2-phenylcyclopropyl)imidazo[1,2-b]pyridazin-6-yl)pyrimidine-2,4(1H,3H)-dione] registered an EC50 on CD73 [2] of 0.0238 µM. In other words, the double-digit nanomolar range.

`COC[C@H]1C[C@@H]1c1cc(-c2c[nH]c(=O)[nH]c2=O)nn2ccnc12` (racemic) [Example 4, 5-(8-((1S,2S)-2-(methoxymethyl)cyclopropyl)imidazo[1,2-b]pyridazin-6-yl)pyrimidine-2,4(1H,3H)-dione and 5-(8-((1R,2R)-2-(methoxymethyl)cyclopropyl)imidazo[1,2-b]pyridazin-6-yl)pyrimidine-2,4(1H,3H)-dione]: the IC50 on CD73 [1] is 0.195 µM and 0.231 µM. Further, the EC50 on CD73 [2] is 0.191 µM and 0.285 µM.

As to `O=c1[nH]cc(-c2cc([C@H]3CC34CCC4)c3nccn3n2)c(=O)[nH]1` (racemic) [Example 5, (S)-5-(8-(spiro[2.3]hexan-1-yl)imidazo[1,2-b]pyridazin-6-yl)pyrimidine-2,4(1H,3H)-dione and (R)-5-(8-(spiro[2.3]hexan-1-yl)imidazo[1,2-b]pyridazin-6-yl)pyrimidine-2,4(1H,3H)-dione], the 50% inhibitory concentration (IC50) against CD73 [1] was 1.55 µM and 2.5 µM. Further, at CD73 [2], the EC50 is 2.02 µM and 2.53 µM.

`CC(C)(C)[C@H]1C[C@@H]1c1cc(-c2c[nH]c(=O)[nH]c2=O)nn2ccnc12` (racemic) [Example 6, 5-(8-((1S,2S)-2-(tert-butyl)cyclopropyl)imidazo[1,2-b]pyridazin-6-yl)pyrimidine-2,4-(1H,3H)-dione and 5-(8-((1R,2R)-2-(tert-butyl)cyclopropyl)imidazo[1,2-b]pyridazin-6-yl)pyrimidine-2,4-(1H,3H)-dione] registered an IC50 at CD73 [1] of 0.164 µM. Besides, the EC50 on CD73 [2] came to 0.184 µM.

Regarding `O=c1[nH]cc(-c2cc([C@H]3C[C@@H]3C3CC3)c3nccn3n2)c(=O)[nH]1` (racemic) [Example 8, 5-(8-((1R,2S)-[1,1′-bi(cyclopropan)]-2-yl)imidazo[1,2-b]pyridazin-6-yl)pyrimidine-2,4(1H,3H)-dione and 5-(8-((1S,2R)-[1,1′-bi(cyclopropan)]-2-yl)imidazo[1,2-b]pyridazin-6-yl)pyrimidine-2,4(1H,3H)-dione], the IC50 on CD73 [1] is 0.029 µM and 0.0458 µM. Besides, the EC50 at CD73 [2] is 0.0361 µM and 0.0472 µM.

At CD73 [1], `O=c1[nH]cc(-c2cc([C@H]3C[C@@H]3c3cccc(C(F)(F)F)c3)c3nccn3n2)c(=O)[nH]1` (racemic) [Example 41, 5-[8-[(1S,2S)-2-[3-(trifluoromethyl)phenyl]cyclopropyl]imidazo[1,2-b]pyridazin-6-yl]-1H-pyrimidine-2,4-dione and 5-[8-[(1R,2R)-2-[3-(trifluoromethyl)phenyl]cyclopropyl]imidazo[1,2-b]pyridazin-6-yl]-1H-pyrimidine-2,4-dione] came in with an IC50 of 0.0616 µM. This molecule gave a 50% effective concentration (EC50) at CD73 [2] of 0.0186 µM.

For the molecule `O=c1[nH]cc(-c2cc([C@H]3C[C@@H]3c3ccc(C4CC4)cc3)c3nccn3n2)c(=O)[nH]1` (racemic) [Example 45, 5-(8-((1S,2S)-2-(4-cyclopropylphenyl)cyclopropyl)imidazo[1,2-b]pyridazin-6-yl)pyrimidine-2,4(1H,3H)-dione and 5-(8-((1R,2R)-2-(4-cyclopropylphenyl)cyclopropyl)imidazo[1,2-b]pyridazin-6-yl)pyrimidine-2,4(1H,3H)-dione], the half-inhibitory concentration (IC50) against CD73 [1] came out at 0.0326 µM. Also, it took 0.00659 µM to reach a half-maximal effect on CD73 [2] (EC50).

`O=c1[nH]cc(-c2cc([C@H]3C[C@@H]3c3cccc(OC(F)(F)F)c3)c3nccn3n2)c(=O)[nH]1` (racemic) [Example 47, 5-(8-((1S,2S)-2-(3-(trifluoromethoxy)phenyl)cyclopropyl)imidazo[1,2-b]pyridazin-6-yl) pyrimidine-2,4(1H,3H)-dione and 5-(8-((1R,2R)-2-(3-(trifluoromethoxy)phenyl)cyclopropyl)imidazo[1,2-b]pyridazin-6-yl) pyrimidine-2,4(1H,3H)-dione] gave an IC50 at CD73 [1] of 0.0472 µM. The molecule further displayed an EC50 on CD73 [2] of 0.0137 µM.

As for `O=c1[nH]cc(-c2cc([C@H]3C[C@@H]3c3cc(F)cc(F)c3)c3nccn3n2)c(=O)[nH]1` (racemic) [Example 60, 5-(8-((1S,2S)-2-(3,5-difluorophenyl)cyclopropyl)imidazo[1,2-b]pyridazin-6-yl)pyrimidine-2,4(1H,3H)-dione and 5-(8-((1R,2R)-2-(3,5-difluorophenyl)cyclopropyl)imidazo[1,2-b]pyridazin-6-yl)pyrimidine-2,4(1H,3H)-dione], the midpoint of inhibition against CD73 [1], the IC50, lay at 0.0126 µM. For the same molecule, it took 0.00643 µM to reach a half-maximal effect at CD73 [2] (EC50).

Molecule `O=c1[nH]cc(-c2cc([C@H]3C[C@@H]3c3cc(F)ccc3F)c3nccn3n2)c(=O)[nH]1` (racemic) [Example 65, 5-(8-((1S,2S)-2-(2,5-difluorophenyl)cyclopropyl)imidazo[1,2-b]pyridazin-6-yl)pyrimidine-2,4(1H,3H)-dione and 5-(8-((1R,2R)-2-(2,5-difluorophenyl)cyclopropyl)imidazo[1,2-b]pyridazin-6-yl)pyrimidine-2,4(1H,3H)-dione] returned a 50% inhibitory concentration (IC50) against CD73 [1] of 0.0132 µM. The half-maximal effective concentration (EC50) at CD73 [2] was 0.00671 µM.

`O=c1[nH]cc(-c2cc([C@H]3C[C@@H]3c3cccc4ccccc34)c3nccn3n2)c(=O)[nH]1` (racemic) [Example 74, 5-[8-[(1S,2S)-2-(1-naphthyl)cyclopropyl]imidazo[1,2-b]pyridazin-6-yl]-1H-pyrimidine-2,4-dione and 5-[8-[(1R,2R)-2-(1-naphthyl)cyclopropyl]imidazo[1,2-b]pyridazin-6-yl]-1H-pyrimidine-2,4-dione] returned a 50% inhibitory concentration (IC50) against CD73 [1] of 0.17 µM. The response at CD73 [2] was half-maximal at 0.54 µM (EC50).

The molecule `O=c1[nH]cc(-c2cc([C@H]3C[C@@H]3c3ccc(F)cc3)c3ncc(F)n3n2)c(=O)[nH]1` (racemic) [Example 76, 5-[3-fluoro-8-[(1S,2S)-2-(4-fluorophenyl)cyclopropyl]imidazo[1,2-b]pyridazin-6-yl]-1H-pyrimidine-2,4-dione and 5-[3-fluoro-8-[(1R,2R)-2-(4-fluorophenyl)cyclopropyl]imidazo[1,2-b]pyridazin-6-yl]-1H-pyrimidine-2,4-dione] showed an IC50 at CD73 [1] of 0.0265 µM. For the same molecule, the EC50 on CD73 [2] turned out to be 0.00248 µM.

Take `O=c1[nH]cc(-c2cc([C@H]3C[C@@H]3c3ccc(F)c(C(F)(F)F)c3)c3nccn3n2)c(=O)[nH]1` (racemic) [Example 95, 5-(8-((1S,2S)-2-(4-fluoro-3-(trifluoromethyl)phenyl)cyclopropyl)imidazo[1,2-b]pyridazin-6-yl)pyrimidine-2,4(1H,3H)-dione and 5-(8-((1R,2R)-2-(4-fluoro-3-(trifluoromethyl)phenyl)cyclopropyl)imidazo[1,2-b]pyridazin-6-yl)pyrimidine-2,4(1H,3H)-dione]: the 50% inhibitory concentration (IC50) against CD73 [1] came to 0.0495 µM. Further, on CD73 [2], it took 0.0391 µM to reach a half-maximal effect (EC50).

In the case of `O=c1[nH]cc(-c2cc([C@H]3C[C@@H]3c3ccc(F)c(Cl)c3)c3nccn3n2)c(=O)[nH]1` (racemic) [Example 99, 5-(8-((1S,2S)-2-(3-chloro-4-fluorophenyl)cyclopropyl)imidazo[1,2-b]pyridazin-6-yl)pyrimidine-2,4(1H,3H)-dione and 5-(8-((1R,2R)-2-(3-chloro-4-fluorophenyl)cyclopropyl)imidazo[1,2-b]pyridazin-6-yl)pyrimidine-2,4(1H,3H)-dione], inhibition against CD73 [1] was half-maximal at 0.0193 µM (IC50). On CD73 [2], this molecule registered an EC50 of 0.00605 µM.

Regarding `O=c1[nH]cc(-c2cc(N3C[C@@H](F)[C@@H](F)C3)c3nccn3n2)c(=O)[nH]1` [Example 77, 5-[8-[(3S,4R)-3,4-difluoropyrrolidin-1-yl]imidazo[1,2-b]pyridazin-6-yl]-1H-pyrimidine-2,4-dione and 5-[8-[(3R,4S)-3,4-difluoropyrrolidin-1-yl]imidazo[1,2-b]pyridazin-6-yl]-1H-pyrimidine-2,4-dione], the EC50 stood at 0.0284 µM on CD73 [3] and 0.0134 µM at CD73 [2].
